# Source: patent US20210315840A1, “SOLID ORAL DOSAGE FORMS OF KETAMINE DERIVATIVES” (priority 2017, published 2021)
# Entries after “also recorded” stand apart in the source; their conditions may differ. Like-named read-outs stand apart in the source and are kept apart here.
# Key:
# [1] = test system: mouse; test: Progressive ratio test in the mouse
# [2] = test system: Caco-2
# [3] = 300 mg/kg IP daily for 4 days, listed as 2R,6R-HNK
# [4] = 300 mg/kg, replication after 3-week wash-out, listed as 2R,6R-HNK
# [5] = dose matched to 300 mg/kg 2R,6R-HNK
structure (smiles),measurement,setting,value
"N[C@@]1(c2ccccc2Cl)CCC[C@@H](O)C1=O [2R,6R-hydroxynorketamine L-pyroglutamate]","average responses per minute, higher compared with vehicle",[1]; 300 mg/kg IP,29%
same,number of target touches compared to ketamine and vehicle groups,[1]; 300 mg/kg IP daily for 4 days,significant increase
same,breakpoint compared to vehicle and ketamine,"[1]; 300 mg/kg IP daily for 4 days, tested 20 minutes after injection",significant increase
same,% of correct touches,[1]; [3],significant increase; also recorded: significantly increased
same,ratio of target touches to blank touches,[1]; [3],significant increase; also recorded: significantly increased
same,rate of responding (running rate) compared to ketamine and vehicle groups,"[1]; 300 mg/kg IP, 60 minute test session",higher rate of responding
same,predicted peak responding (running rate coefficient),"[1]; 300 mg/kg IP, p=0.12",trend toward a main effect of drug
same,"average responses per minute, higher compared with ketamine","[1]; 300 mg/kg IP, ketamine 10 mg/kg",59%
same,breakpoint compared to vehicle and ketamine,"[1]; 300 mg/kg, replication after 3-week wash-out",significant increase
same,% of correct touches,[1]; [4],significant increase; also recorded: increased
same,number of target touches,[1]; [4],significant increase; also recorded: increased
same,ratio of target touches to blank touches,[1]; [4],significant increase; also recorded: increased
same,cognitive measures,[1]; doses below 30 mg/kg,No increase
"O=C1CC[C@@H](C(=O)[O-])N1.[Na+] [NaPg, sodium L-pyroglutamate, reference compound]",any measure examined,[1]; [5],did not significantly affect
same,breakpoint compared to vehicle controls,[1]; [5],did not increase
"CC(C)NCC(O)COc1cccc2ccccc12 (stereo not shown) [Propranolol, reference compound]",Papp Replicate 1,[2]; Direction = A2B,26.0 10^−6 cms^−1
same,Papp Replicate 2,[2]; Direction = A2B,27.4 10^−6 cms^−1
same,Papp Replicate 1,[2]; Direction = B2A,27.0 10^−6 cms^−1
same,Papp Replicate 2,[2]; Direction = B2A,26.2 10^−6 cms^−1
